Common to all, as to experiment: Kinase selectivity panel
What all share (assay type): biochemical

One assay concerns the target TAOK2 (TAO1) (h) (Homo sapiens (Human), UniProt Q9UL54). The note with it: duplicate, read-out: % inhibition of control values, TAOK2 (TAO1) (h). Put shortly:
(§1)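 Compounds at 10 μM (duplicate wells) are profiled against human recombinant kinases that phosphorylate peptide substrates with ATP over 10–90 min at 22° C. LANCE or HTRF read-out quantifies the phosphorylated product, and values represent % inhibition versus control.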

In the next assay the target is DLK1 (h) (MAP3K12) (Homo sapiens (Human), UniProt Q12852). As to conditions: duplicate, read-out: % inhibition of control values, DLK1 (h) (MAP3K12). Put shortly: as §1
Chain of DLK1 (h) (MAP3K12) (Q12852 whole entry): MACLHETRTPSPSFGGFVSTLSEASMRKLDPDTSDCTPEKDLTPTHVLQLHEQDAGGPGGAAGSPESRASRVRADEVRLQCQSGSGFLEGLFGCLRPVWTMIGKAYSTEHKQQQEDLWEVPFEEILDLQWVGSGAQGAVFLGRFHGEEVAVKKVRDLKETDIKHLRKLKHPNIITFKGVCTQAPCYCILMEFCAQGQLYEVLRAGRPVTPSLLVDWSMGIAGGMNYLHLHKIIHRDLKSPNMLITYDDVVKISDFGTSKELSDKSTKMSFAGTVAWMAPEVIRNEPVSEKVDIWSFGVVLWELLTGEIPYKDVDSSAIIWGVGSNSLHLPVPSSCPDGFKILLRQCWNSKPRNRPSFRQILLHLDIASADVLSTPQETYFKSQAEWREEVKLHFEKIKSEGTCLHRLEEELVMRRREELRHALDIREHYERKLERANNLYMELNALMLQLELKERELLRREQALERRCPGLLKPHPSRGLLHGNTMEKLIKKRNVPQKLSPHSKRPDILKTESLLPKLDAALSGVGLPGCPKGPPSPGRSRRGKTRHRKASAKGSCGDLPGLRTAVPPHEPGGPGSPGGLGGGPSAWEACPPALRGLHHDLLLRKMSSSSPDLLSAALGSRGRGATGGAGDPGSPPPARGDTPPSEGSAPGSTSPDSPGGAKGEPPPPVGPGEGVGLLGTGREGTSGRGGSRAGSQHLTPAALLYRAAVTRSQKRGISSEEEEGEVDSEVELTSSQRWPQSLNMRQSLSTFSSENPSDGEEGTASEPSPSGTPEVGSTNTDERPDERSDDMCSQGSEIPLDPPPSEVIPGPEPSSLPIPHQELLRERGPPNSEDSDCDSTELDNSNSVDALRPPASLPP
A further assay addresses p38alpha kinase (h) (Homo sapiens (Human), UniProt Q16539). The note with it: duplicate, read-out: % inhibition of control values, p38alpha kinase (h). The method, boiled down:
as §1

Another assay concerns the target mTOR kinase (h) (FRAP1) (Homo sapiens (Human), UniProt P42345). The note with it: duplicate, read-out: % inhibition of control values, mTOR kinase (h) (FRAP1). Put shortly: as §1
The next assay addresses CaMK4 (h) (Homo sapiens (Human), UniProt Q16566). The note with it: duplicate, read-out: % inhibition of control values, CaMK4 (h). Put shortly: as §1
A further assay deals with PDK1 (h) (Homo sapiens (Human), UniProt O15530). As to conditions: duplicate, read-out: % inhibition of control values, PDK1 (h). Put shortly:
as §1

For the next assay, the target named is NEK1 (h) (Homo sapiens (Human), UniProt Q96PY6). As to conditions: duplicate, read-out: % inhibition of control values, NEK1 (h). Put shortly:
as §1

A further assay addresses FGFR1 kinase (h) (Homo sapiens (Human), UniProt P11362). The note with it: duplicate, read-out: % inhibition of control values, FGFR1 kinase (h). The method, boiled down: as §1
The target in a further assay is MSK1 (h) (Homo sapiens (Human), UniProt O75582). As to conditions: duplicate, read-out: % inhibition of control values, MSK1 (h). Put shortly:
as §1

The next assay concerns the target p38gamma kinase (h) (Homo sapiens (Human), UniProt P53778). The note with it: duplicate, read-out: % inhibition of control values, p38gamma kinase (h). Put shortly: as §1
A further assay addresses MEK1/MAP2K1 (h) (Homo sapiens (Human), UniProt Q02750). The note with it: duplicate, read-out: % inhibition of control values, MEK1/MAP2K1 (h). The method, boiled down:
as §1

Another assay concerns the target DCAMKL1 (h) (Homo sapiens (Human), UniProt O15075). The note with it: duplicate, read-out: % inhibition of control values, DCAMKL1 (h). Put shortly: as §1
A further assay concerns the target smMLCK (h) (MYLK) (Homo sapiens (Human), UniProt Q15746). As to conditions: duplicate, read-out: % inhibition of control values, smMLCK (h) (MYLK). Put shortly: as §1
The next assay concerns the target IKKepsilon (h) (IKBKE) (Homo sapiens (Human), UniProt Q14164). As to conditions: duplicate, read-out: % inhibition of control values, IKKepsilon (h) (IKBKE). Put shortly: as §1
The target of a further assay is FGFR4 kinase (h) (Homo sapiens (Human), UniProt P22455). As to conditions: duplicate, read-out: % inhibition of control values, FGFR4 kinase (h). The method, boiled down: as §1
Chain of FGFR4 kinase (h) (P22455 22-802): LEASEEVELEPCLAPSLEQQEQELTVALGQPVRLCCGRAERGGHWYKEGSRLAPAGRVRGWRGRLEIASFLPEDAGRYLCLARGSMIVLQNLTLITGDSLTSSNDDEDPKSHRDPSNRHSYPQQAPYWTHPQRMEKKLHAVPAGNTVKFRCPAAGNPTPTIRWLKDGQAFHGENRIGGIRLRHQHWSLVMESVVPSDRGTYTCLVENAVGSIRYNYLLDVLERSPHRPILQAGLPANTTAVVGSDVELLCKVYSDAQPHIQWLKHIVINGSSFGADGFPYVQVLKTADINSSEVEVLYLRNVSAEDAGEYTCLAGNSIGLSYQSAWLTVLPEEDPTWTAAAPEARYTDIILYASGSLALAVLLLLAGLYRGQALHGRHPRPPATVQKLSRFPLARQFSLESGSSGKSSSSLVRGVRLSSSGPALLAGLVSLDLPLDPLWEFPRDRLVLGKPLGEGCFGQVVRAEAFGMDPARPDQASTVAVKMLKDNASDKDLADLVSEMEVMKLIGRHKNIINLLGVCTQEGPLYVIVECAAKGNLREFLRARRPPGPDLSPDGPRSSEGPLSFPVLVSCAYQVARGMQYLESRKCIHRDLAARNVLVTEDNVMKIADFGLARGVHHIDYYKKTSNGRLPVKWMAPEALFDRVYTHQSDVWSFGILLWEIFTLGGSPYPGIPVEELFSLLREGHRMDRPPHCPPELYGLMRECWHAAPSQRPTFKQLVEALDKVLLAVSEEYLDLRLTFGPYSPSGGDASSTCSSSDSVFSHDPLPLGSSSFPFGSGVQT
The next assay concerns the target AurB/Aur1 kinase (h) (Homo sapiens (Human), UniProt Q96GD4). The note with it: duplicate, read-out: % inhibition of control values, AurB/Aur1 kinase (h). Put shortly:
as §1

A further assay has as its target JAK2 (h) (Homo sapiens (Human), UniProt O60674). As to conditions: duplicate, read-out: % inhibition of control values, JAK2 (h). Put shortly:
as §1

The target of a further assay is GSK3beta (h) (Homo sapiens (Human), UniProt P49841). The note with it: for inhibition at 10 µM: duplicate, read-out: % inhibition of control values, GSK3beta (h); for Selectivity for GSK-3β compared to the other kinases of the panel: panel of 60 kinases, 10 μM. Put shortly:
as §1

Here are results for three compounds from US9163013B2, “Use of 1H-indazole-3-carboxamide compounds as glycogen synthase kinase 3 beta inhibitors” (AZIENDE CHIMICHE RIUNITE ANGELINI FRANCESCO A.C.R.A.F. …, priority 2012, dated 2015).

Structures can show the parent of a compound that is named as a salt.

Chain of CaMK4 (h) (Q16566 whole entry): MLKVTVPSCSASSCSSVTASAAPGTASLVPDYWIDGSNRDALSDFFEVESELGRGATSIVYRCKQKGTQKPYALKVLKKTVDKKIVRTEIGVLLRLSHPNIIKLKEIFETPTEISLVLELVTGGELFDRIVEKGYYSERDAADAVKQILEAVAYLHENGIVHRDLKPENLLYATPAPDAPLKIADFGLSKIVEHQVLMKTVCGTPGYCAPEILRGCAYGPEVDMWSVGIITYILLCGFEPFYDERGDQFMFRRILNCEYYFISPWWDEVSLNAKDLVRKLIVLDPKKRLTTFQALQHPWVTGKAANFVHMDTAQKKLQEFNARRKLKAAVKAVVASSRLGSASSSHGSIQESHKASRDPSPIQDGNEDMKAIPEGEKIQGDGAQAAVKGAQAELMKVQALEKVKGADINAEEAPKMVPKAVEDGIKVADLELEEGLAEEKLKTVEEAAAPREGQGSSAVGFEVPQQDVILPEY
Chain of p38alpha kinase (h) (Q16539 whole entry): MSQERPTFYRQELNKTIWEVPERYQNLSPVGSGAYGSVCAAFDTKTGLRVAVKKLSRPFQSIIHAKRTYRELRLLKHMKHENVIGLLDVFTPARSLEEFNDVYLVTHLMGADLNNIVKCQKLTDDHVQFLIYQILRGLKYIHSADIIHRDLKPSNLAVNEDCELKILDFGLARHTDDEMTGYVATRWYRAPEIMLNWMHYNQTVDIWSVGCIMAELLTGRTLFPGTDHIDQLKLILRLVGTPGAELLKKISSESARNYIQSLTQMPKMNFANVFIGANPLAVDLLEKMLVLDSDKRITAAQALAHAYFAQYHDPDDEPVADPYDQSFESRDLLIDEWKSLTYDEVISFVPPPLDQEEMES
Chain of GSK3beta (h) (P49841 whole entry): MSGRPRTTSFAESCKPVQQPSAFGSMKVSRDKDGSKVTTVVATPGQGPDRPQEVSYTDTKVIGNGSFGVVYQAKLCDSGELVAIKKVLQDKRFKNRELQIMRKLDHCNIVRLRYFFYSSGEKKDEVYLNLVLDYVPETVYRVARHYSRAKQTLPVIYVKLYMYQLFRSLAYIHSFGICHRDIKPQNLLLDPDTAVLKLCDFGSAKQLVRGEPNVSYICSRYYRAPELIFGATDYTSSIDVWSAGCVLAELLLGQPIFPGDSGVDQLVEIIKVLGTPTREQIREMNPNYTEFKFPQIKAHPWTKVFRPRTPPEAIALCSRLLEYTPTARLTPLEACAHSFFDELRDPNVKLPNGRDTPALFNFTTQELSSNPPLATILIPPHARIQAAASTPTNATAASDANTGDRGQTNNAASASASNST
Chain of AurB/Aur1 kinase (h) (Q96GD4 whole entry): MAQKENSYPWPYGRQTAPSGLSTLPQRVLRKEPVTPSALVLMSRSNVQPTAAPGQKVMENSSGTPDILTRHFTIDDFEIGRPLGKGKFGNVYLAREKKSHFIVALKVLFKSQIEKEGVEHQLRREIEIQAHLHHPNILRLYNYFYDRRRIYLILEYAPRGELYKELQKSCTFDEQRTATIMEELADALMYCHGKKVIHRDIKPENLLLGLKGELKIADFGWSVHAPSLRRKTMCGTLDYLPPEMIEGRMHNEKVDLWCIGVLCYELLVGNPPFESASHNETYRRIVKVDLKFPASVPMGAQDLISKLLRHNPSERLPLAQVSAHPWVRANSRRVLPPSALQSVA
Chain of DCAMKL1 (h) (O15075 whole entry): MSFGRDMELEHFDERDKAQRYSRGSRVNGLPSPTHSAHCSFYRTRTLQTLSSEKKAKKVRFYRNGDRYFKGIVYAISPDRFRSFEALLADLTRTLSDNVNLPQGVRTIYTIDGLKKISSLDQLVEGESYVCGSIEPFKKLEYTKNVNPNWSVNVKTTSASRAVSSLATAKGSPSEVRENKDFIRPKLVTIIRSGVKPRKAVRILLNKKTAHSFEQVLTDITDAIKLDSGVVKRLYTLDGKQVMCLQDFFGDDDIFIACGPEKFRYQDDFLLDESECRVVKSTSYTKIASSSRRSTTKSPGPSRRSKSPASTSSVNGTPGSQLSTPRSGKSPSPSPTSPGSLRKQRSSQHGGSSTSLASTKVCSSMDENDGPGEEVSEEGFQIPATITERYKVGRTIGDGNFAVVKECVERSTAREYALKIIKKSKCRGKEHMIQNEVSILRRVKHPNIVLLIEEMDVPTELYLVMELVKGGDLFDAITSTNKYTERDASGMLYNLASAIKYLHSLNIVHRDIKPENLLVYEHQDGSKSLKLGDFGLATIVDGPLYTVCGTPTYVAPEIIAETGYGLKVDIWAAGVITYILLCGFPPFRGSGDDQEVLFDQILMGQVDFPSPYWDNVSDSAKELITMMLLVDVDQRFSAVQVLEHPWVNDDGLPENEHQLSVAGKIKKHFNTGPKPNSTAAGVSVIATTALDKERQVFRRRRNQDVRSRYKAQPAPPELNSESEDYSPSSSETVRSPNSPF
Chain of IKKepsilon (h) (IKBKE) (Q14164 whole entry): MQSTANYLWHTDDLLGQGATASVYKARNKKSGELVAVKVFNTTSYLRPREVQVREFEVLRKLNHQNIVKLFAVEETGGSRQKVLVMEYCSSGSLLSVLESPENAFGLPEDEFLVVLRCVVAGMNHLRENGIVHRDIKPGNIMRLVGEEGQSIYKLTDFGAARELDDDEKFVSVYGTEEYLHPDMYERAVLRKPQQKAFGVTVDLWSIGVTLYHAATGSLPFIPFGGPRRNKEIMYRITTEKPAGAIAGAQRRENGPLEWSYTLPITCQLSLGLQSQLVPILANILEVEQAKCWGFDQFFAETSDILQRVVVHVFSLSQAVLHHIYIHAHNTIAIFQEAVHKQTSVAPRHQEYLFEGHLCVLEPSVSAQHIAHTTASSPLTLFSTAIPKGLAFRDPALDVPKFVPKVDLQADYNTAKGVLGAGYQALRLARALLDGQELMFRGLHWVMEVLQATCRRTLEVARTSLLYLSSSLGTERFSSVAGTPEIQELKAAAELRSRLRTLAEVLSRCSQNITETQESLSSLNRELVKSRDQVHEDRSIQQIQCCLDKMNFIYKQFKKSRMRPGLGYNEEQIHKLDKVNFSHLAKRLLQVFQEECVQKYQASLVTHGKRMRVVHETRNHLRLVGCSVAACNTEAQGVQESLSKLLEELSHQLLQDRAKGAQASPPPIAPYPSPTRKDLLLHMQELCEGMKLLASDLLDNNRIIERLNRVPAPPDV

With `COc1ccc2[nH]nc(C(=O)NCC3CCN(CCc4ccc(O)cc4)CC3)c2c1` [Compound 1, N-({1-[2-(4-hydroxyphenyl)ethyl]-piperidin-4-yl}methyl)-5-methoxy-1H-indazole-3-carboxamide], the inhibition at 10 µM at TAOK2 (TAO1) (h) is 41%; on DLK1 (h) (MAP3K12), 10%; at p38alpha kinase (h), 0%; at mTOR kinase (h) (FRAP1) it was 0%; on CaMK4 (h), 14%; on PDK1 (h), 8%. The inhibition at 10 µM at NEK1 (h) amounted to 1%; at FGFR1 kinase (h), 6%; at MSK1 (h), 8%; on p38gamma kinase (h) it was 2%; at MEK1/MAP2K1 (h), 25%; on DCAMKL1 (h), 4%. The inhibition at 10 µM on smMLCK (h) (MYLK) is 0%; on IKKepsilon (h) (IKBKE), 4%; on FGFR4 kinase (h), 2%; on AurB/Aur1 kinase (h) it was 11%; at JAK2 (h), 0%; at GSK3beta (h) it was 92%. Besides, the “Selectivity for GSK-3β compared to the other kinases of the panel” value (“Selectivity for GSK-3β” for short) at GSK3beta (h) is “good selectivity profile”.
On to `COc1ccncc1-c1ccc2[nH]nc(C(=O)NCC3CCN(Cc4ccc(C(=O)O)o4)CC3)c2c1` [Compound 21, 5-({4-[({[5-(4-Methoxypyridin-3-yl)-1H-indazol-3-yl]carbonyl}amino)methyl]piperidin-1-yl}methyl)furan-2-carboxylic acid formate], for which the inhibition at 10 µM on TAOK2 (TAO1) (h) was found to be 54%; at DLK1 (h) (MAP3K12) it was 46%; on p38alpha kinase (h), 1%; on CaMK4 (h), 13%; at PDK1 (h), 0%; at FGFR1 kinase (h), 13%. Further, the inhibition at 10 µM was 0% on DCAMKL1 (h); 21% on IKKepsilon (h) (IKBKE); 0% at FGFR4 kinase (h); 10% at AurB/Aur1 kinase (h); 2% at JAK2 (h); 96% at GSK3beta (h). In addition, at GSK3beta (h), the “Selectivity for GSK-3β” value is reported as “good affinity to GSK-3β when compared to most of other kinases of the same family”.
`COc1ccc2[nH]nc(C(=O)NCC3CCN(Cc4ccc(C(=O)O)o4)CC3)c2c1` [Compound 24, 5-{[4-({[(5-Methoxy-1H-indazol-3-yl)carbonyl]amino}methyl)piperidin-1-yl]methyl}furan-2-carboxylic acid]: the inhibition at 10 µM at TAOK2 (TAO1) (h) turned out to be 8%; at DLK1 (h) (MAP3K12), 0%; on p38alpha kinase (h), 0%; at CaMK4 (h), 11%; at PDK1 (h), 0%; on FGFR1 kinase (h) it was 0%. Also, the inhibition at 10 µM on DCAMKL1 (h) was 0%; at IKKepsilon (h) (IKBKE), 0%; at FGFR4 kinase (h) it was 4%; on AurB/Aur1 kinase (h), 0%; at JAK2 (h), 0%; at GSK3beta (h) it was 94%. Also, the “Selectivity for GSK-3β” value on GSK3beta (h) is given as “good selectivity profile”.
